Earlier results in patent US20200188266A1, “Oral Care Compositions and Methods of Use” (priority 2017, published 2020).

Details: DI water at about 35° C.

For `CC(=O)c1c(O)c(C)c(O)c2c1OC1=CC(=O)C(C(C)=O)C(=O)C12C` (stereo not shown) [usnic acid], the solubility is listed as “about 6.3 ppm”.
